Results taken from patent US9080144B2, “Compositions and methods for promoting liposomal and cellular adhesion” (priority 2012, dated 2015).
Entries after “also recorded” stand apart in the source; their conditions may differ.

Key:
[1] = test system: fibroblasts (fbs); assay: Fluorescence labeling optimization of DOTAP concentration for liposome-cell fusion; format: cell-based; settings: keto-LUVs with 0.5-5% DOTAP, 5% ketone; fbs 4 h; rhod-oxyamine 0.7 mM 2 h
Procedure: Cell-surface labeling. In an embodiment of the present application, oxime chemistry is used to tailor and fluorescently label cell surfaces via a novel liposome fusion strategy. As mentioned, cationic lipid, DOTAP, was incorporated within keto- and oxyamine-LUVs to initiate electrostatic destabilization and subsequent fusion to the cell membrane. As such, the minimum DOTAP concentration required to facilitate liposome-cell fusion was determined to be […] through fluorescence labeling optimization. Keto-LUVs were generated using DOTAP and POPC concentrations that ranged from 0.5% to 5% and 90% to 94.5%, respectively, while maintaining a 5-% ketone concentration. These liposomes were incubated with fibroblasts (fbs) for 4 h, conjugated with an oxyamine-tethered rhodamine (rhod-oxyamine, 8) (0.7 mM, 2 h), and the cell fluorescence intensities were then compared. […] The liposomes for liposome-cell fusion events were approximately ˜60 nm in diameter, similar to those used for the liposome-liposome fusion characterization.

[2] = test system: fibroblasts (fbs); assay: Cell-surface engineering: fluorescent labeling of fbs by liposome fusion and oxime conjugation; format: cell-based, mouse; settings: liposome fusion 2 h plus complementary oxime dye
Procedure: Two cell-surface engineering methods were employed to fluorescently label fbs. In this first method, a solution of oxyamine vc-LUVs (6, 3 mM) was incubated with a ketone-functionalized fluorescein (7, 0.15 mM, 1 eq, 2 h), forming fluorescently labeled liposomes. The liposomes were then added to fbs in culture for 2 h. After fusion, the cells were washed with PBS (3×2 mL), trypsinized (1 mL, 5 min, 37° C., 5% CO2), diluted with CBS-containing media (˜10^2/mL), and seeded to a glass substrate (1×1 cm^2, 2 h). The cells were then imaged under a fluorescence microscope with an exposure time of 1/1200 s. In the second method, a solution of keto-LUVs (5, 200 μL, 0.6 mM) was added to fbs in culture for 2 h, resulting in membrane fusion and subsequent display of ketones from the cell surface (9). Rhod-oxyamine (8, 100 μL, 0.7 mM in H2O) was then added the cells for 2 h. After oxime formation, the fbs were washed with PBS (3×2 mL), trypsinized (1 mL, 5 min, 37° C., 5% CO2), diluted with CBS-containing media (˜10^2/mL), and seeded to a glass substrate (1×1 cm^2, 2 h). The cells were then imaged under a fluorescence microscope with an exposure time of 1/1200 s (see FIG. 3).

Row | Compound | minimum DOTAP concentration required to facilitate liposome-cell fusion [1] [%] | fluorescent labeling of fbs (microscopy) [2]
1 | CCCCCCCC/C=C\CCCCCCCC(=O)OCC(C[N+](C)(C)C)OC(=O)CCCCCCC/C=C\CCCCCCCC (centres unmarked) [DOTAP, 1,2-dioleoyl-3-trimethylammonium-propane] | 2 | –
2 | CCN(CC)c1ccc2c(-c3ccc(S(=O)(=O)NCCCCNC(=O)CON)cc3S(=O)(=O)[O-])c3ccc(=[N+](CC)CC)cc-3oc2c1 [compound 8, 5-(N-(4-(2-(aminooxy)acetamido)butyl)sulfamoyl)-2-(6-(diethylamino)-3-(diethyliminio)-3H-xanthen-9-yl)benzenesulfonate] | – | fluorescence labeling of cells; also recorded: red fluorescent labeling of the cells
